From ChEMBL document CHEMBL4130350, “Discovery, mechanism and metabolism studies of 2,3-difluorophenyl-linker-containing PARP1 inhibitors with enhanced in vivo efficacy for cancer therapy” (Eur J Med Chem, 2017)
pIC50: −log10 of the molar value. ≈ marks a conversion by molar mass, not a printed value. Calls of active or inactive are those of the source. No cut-off for these calls is given here.

Columns and labels:
V79 = assay: Cytotoxicity against BRCA2 expressing Chinese hamster V79 cells after 3 days by CCK8 or SRB assay; format: cell-based; settings: Cricetulus griseus, V79, 72 h
[1] = Solubility of the compound in water after 24 hrs by HPLC analysis; format: physicochemical
[2] = target: T1, Poly [ADP-ribose] polymerase 1 (Homo sapiens, UniProt P09874); assay: Inhibition of PARP1 in BRCA1 deficient human MDA-MB-436 cells assessed as increase in DNA double stranded breaks by measuring gammaH2AX levels after 72 hrs by Western blot analysis; format: cell-based
[3] = target: T1, Poly [ADP-ribose] polymerase 1; assay: Inhibition of PARP1 in BRCA1 deficient human MDA-MB-436 cells assessed as increase in DNA double stranded breaks by measuring gammaH2AX levels after 48 hrs by Western blot analysis; format: cell-based
CAPAN-1 [4] = assay: Cell cycle arrest in human Capan1 cells assessed as accumulation at S phase at 0.1 uM after 72 hrs by propidium iodide-staining based flow cytometry (reference value: 21.42%); format: functional
CAPAN-1 [5] = assay: Cell cycle arrest in human Capan1 cells assessed as accumulation at G2/M phase at 0.1 uM after 72 hrs by propidium iodide-staining based flow cytometry (reference value: 15.26%); format: functional
CAPAN-1 [6] = assay: Cell cycle arrest in human Capan1 cells assessed as accumulation at G0/G1 phase at 1 uM after 72 hrs by propidium iodide-staining based flow cytometry (reference value: 63.33%); format: functional
CAPAN-1 [7] = assay: Cell cycle arrest in human Capan1 cells assessed as accumulation at S phase at 1 uM after 72 hrs by propidium iodide-staining based flow cytometry (reference value: 21.42%); format: functional
CAPAN-1 [8] = assay: Cell cycle arrest in human Capan1 cells after 72 hrs by propidium iodide-staining based flow cytometry; format: functional
[9] = target: T1, Poly [ADP-ribose] polymerase 1; assay: Inhibition of PARP1 in human Capan1 cells assessed as increase in phosphorylated ATM protein levels at 0.1 to 1 uM after 48 hrs by Western blot analysis; format: cell-based
CAPAN-1 [10] = assay: Effect on total chk1 protein levels in human Capan1 cells at 0.1 to 1 uM after 48 hrs by Western blot analysis; format: ADME, cell-based; settings: capan-1, 48 h
MDA-MB-436 [11] = assay: Induction of apoptosis in human MDA-MB-436 cells assessed as early apoptotic cells at 0.1 uM after 96 hrs in presence of pancaspase inhibitor Z-VAD-FMK by Annexin V-FITC/propidium iodide double-staining based flow cytometery (reference value: 2.32%); format: functional
MDA-MB-436 [12] = assay: Induction of apoptosis in human MDA-MB-436 cells assessed as early apoptotic cells at 1 uM after 96 hrs in presence of pancaspase inhibitor Z-VAD-FMK by Annexin V-FITC/propidium iodide double-staining based flow cytometery (reference value: 2.32%); format: functional
MDA-MB-436 [13] = assay: Induction of apoptosis in human MDA-MB-436 cells assessed as late apoptotic cells at 1 uM after 96 hrs in presence of pancaspase inhibitor Z-VAD-FMK by Annexin V-FITC/propidium iodide double-staining based flow cytometery (reference value: 5.11%); format: functional
CAPAN-1 [14] = assay: Antiproliferative activity against human Capan1 cells after 7 days by CCK8 or SRB assay; format: functional, cell-based; settings: CAPAN-1, 168 h
Mus musculus = assay: Toxicity in nude BALB/cA mouse xenografted with human Capan1 cells harboring BRCA2 mutant assessed as weight loss at 40 mg/kg, po administered once daily for 21 consecutive days measured twice per week; format: organism-based; settings: in vivo
[15] = Clearance in Sprague-Dawley rat at 5 mg/kg, iv by LC-MS/MS analysis; format: ADME, organism-based; settings: in vivo
[16] = Cmax in Sprague-Dawley rat at 5 mg/kg, iv by LC-MS/MS analysis; format: ADME, organism-based; design: dose 5 mg/kg, route intravenous; settings: in vivo
[17] = AUC in Sprague-Dawley rat at 5 mg/kg, iv by LC-MS/MS analysis; format: ADME, organism-based; settings: in vivo
[18] = AUC in Sprague-Dawley rat at 10 mg/kg, po by LC-MS/MS analysis; format: ADME, organism-based; settings: in vivo
[19] = Elimination half-life in mouse liver microsomes at 2 uM up to 60 mins by LC-MS/MS analysis; format: ADME, microsome; settings: read-out: beta t1/2
[20] = Apparent permeability across basolateral to apical side in human Caco2 cells after 2 hrs by LC-MS/MS analysis; format: ADME, cell-based; settings: Caco-2
[21] = Efflux ratio of apparent permeability in human Caco2 cells after 2 hrs by LC-MS/MS analysis; format: ADME, cell-based; settings: Caco-2
[22] = Apparent permeability across apical to basolateral side in human Caco2 cells assessed as drug recovery at 4701.8 pmol after 2 hrs by LC-MS/MS analysis; format: ADME, cell-based; settings: Caco-2, read-out: Drug recovery

T1 sequence (P09874 whole entry): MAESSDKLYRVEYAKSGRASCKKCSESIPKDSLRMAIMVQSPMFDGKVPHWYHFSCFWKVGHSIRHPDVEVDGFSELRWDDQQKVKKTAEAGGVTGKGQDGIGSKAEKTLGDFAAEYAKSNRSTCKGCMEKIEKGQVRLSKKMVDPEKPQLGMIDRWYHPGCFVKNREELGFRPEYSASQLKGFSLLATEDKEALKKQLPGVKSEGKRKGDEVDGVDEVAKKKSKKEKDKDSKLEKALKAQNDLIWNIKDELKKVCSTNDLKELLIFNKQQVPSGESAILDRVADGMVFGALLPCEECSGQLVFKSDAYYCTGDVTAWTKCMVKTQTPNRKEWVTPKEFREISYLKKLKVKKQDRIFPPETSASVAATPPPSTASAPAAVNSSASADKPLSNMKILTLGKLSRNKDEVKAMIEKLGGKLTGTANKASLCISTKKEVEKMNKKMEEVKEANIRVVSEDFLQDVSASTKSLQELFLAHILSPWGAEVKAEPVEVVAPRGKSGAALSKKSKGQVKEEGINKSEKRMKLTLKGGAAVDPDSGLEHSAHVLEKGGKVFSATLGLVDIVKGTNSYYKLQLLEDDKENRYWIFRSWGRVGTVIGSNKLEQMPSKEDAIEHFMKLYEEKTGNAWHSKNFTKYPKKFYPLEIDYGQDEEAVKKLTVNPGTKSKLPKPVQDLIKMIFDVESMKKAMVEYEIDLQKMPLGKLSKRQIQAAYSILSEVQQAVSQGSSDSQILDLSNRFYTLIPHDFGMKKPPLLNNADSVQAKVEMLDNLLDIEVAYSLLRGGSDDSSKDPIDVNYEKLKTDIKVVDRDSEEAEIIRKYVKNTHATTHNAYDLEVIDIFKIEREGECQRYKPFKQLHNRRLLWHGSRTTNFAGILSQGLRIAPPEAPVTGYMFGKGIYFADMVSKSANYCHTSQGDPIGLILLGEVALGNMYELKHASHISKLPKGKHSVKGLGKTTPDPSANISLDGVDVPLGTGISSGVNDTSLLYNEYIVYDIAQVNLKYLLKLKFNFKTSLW

N#Cc1cccnc1N1CCN(C(=O)c2cc(Cc3n[nH]c(=O)c4ccccc34)cc(F)c2F)CC1
pIC50 (V79): 4.99 to 5.00
solubility at 24 h [1]: 1.1 µg/mL (≈ 2.26 µM)
inhibition [2]: Dose-dependent effect
inhibition [3]: Dose-dependent effect
Activity (CAPAN-1 [4]): 26.75%
Activity (CAPAN-1 [5]): 17.33%
Activity (CAPAN-1 [6]): 22.38%
Activity (CAPAN-1 [7]): 27.67%
Activity (CAPAN-1 [8]): Dose-dependent effect
inhibition [9]: Active
Activity (CAPAN-1 [10]): Non-Toxic
Activity (MDA-MB-436 [11]): 6.48%
Activity (MDA-MB-436 [12]): 6.61%
Activity (MDA-MB-436 [13]): 18.6%
pIC50 (CAPAN-1 [14]): 8.15
Activity (Mus musculus): Non-Toxic
clearance [15]: 60 mL/min/kg
Cmax [16]: 3260 ng/mL
AUC [17]: 1380 ng·h/mL
AUC [18]: 130 ng·h/mL
half-life at 2 µM [19]: 3 min
Papp B→A at 2 h [20]: 34.1 ×10⁻⁶ cm/s
efflux ratio at 2 h [21]: 5
recovery at 2 h [22]: 91.5%
